GI50 and TGI data for 10 compounds are collected here from PubChem BioAssay (NCI).

“And” between values parts separate entries of the source, which are not always exact repeats. Identical values can stand only once.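 The compound was tested at five concentrations on cells cultured in 96-well plates, with a 48-hour exposure period. The concentration for 50% growth inhibition is given as GI50. At the TGI there is no net growth.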 Some results are limits rather than exact numbers.

Test systems include EKVX NSCLC; NCI-H226 lung; OVCAR-8 ovarian; SF-539 CNS; 786-0 renal; UACC-62 melanoma; A549 NSCLC; SNB-75 CNS; NCI-H23 lung; U251 CNS.
What all share (assay): NCI anticancer screen, dose series, 48 h

Consider `O=C(O)Cc1ccccc1`, for which the GI50 in the experiment with EKVX NSCLC, with NCI-H226 lung, in the experiment on OVCAR-8 ovarian, in the experiment with SF-539 CNS, with UACC-62 melanoma and in the experiment with A549 NSCLC was more than 1000 µM throughout. The GI50 in the experiment on SNB-75 CNS, in the experiment with NCI-H23 lung and with U251 CNS was more than 1000 µM throughout. Moreover, the TGI in the experiment with EKVX NSCLC, in the experiment on NCI-H226 lung, with OVCAR-8 ovarian, in the experiment with SF-539 CNS, in the experiment on 786-0 renal and in the experiment with UACC-62 melanoma was more than 2000 µM throughout. The TGI in the experiment on A549 NSCLC, with SNB-75 CNS, in the experiment with NCI-H23 lung and with U251 CNS was more than 2000 µM in each case.
On to `NC(=NCc1ccccc1)N/N=C\c1ccnc2ccccc12`, for which the TGI in the experiment with EKVX NSCLC was 33.1 µM; in the experiment with NCI-H226 lung it was 38.6 µM; in the experiment on OVCAR-8 ovarian it was 29.9 µM; with SF-539 CNS it was 29.2 µM; in the experiment on 786-0 renal, 29.9 µM; in the experiment on UACC-62 melanoma it was 29.4 µM. Also, the TGI in the experiment with A549 NSCLC was 36.9 µM; with SNB-75 CNS it was 21.5 µM; in the experiment with NCI-H23 lung, 31.7 µM; with U251 CNS, 36.6 µM.
Consider `O=C1NCC2=C1CCC1c3ccccc3CCN21` (configuration not stated), for which the TGI in the experiment on EKVX NSCLC, in the experiment with NCI-H226 lung, in the experiment on OVCAR-8 ovarian, with SF-539 CNS, in the experiment with 786-0 renal and in the experiment with UACC-62 melanoma was more than 100 µM in each case. The TGI in the experiment on A549 NSCLC, with SNB-75 CNS, with NCI-H23 lung and in the experiment with U251 CNS was more than 100 µM each time.
On to `O=[N+]([O-])c1ccc([I+]c2ccccc2)cc1`, for which the GI50 with EKVX NSCLC is 1.5 µM; in the experiment on NCI-H226 lung, 1.45 µM; in the experiment on OVCAR-8 ovarian, 2.78 µM; in the experiment on SF-539 CNS, 1.77 µM; in the experiment with 786-0 renal it was 1.78 µM; in the experiment on UACC-62 melanoma, 1.43 µM. Besides, the GI50 is 1.93 µM with A549 NSCLC, 1.66 µM with SNB-75 CNS, 1.23 µM in the experiment on NCI-H23 lung and 1.71 µM in the experiment with U251 CNS. The TGI was 32 µM and 3.32 µM in the experiment with EKVX NSCLC; 19.1 µM and 3.2 µM in the experiment on NCI-H226 lung; 12.2 µM and 10.3 µM in the experiment on OVCAR-8 ovarian; 14.3 µM and 3.47 µM in the experiment on SF-539 CNS; 8.17 µM and 3.62 µM in the experiment on UACC-62 melanoma; 3.28 µM in the experiment on SNB-75 CNS. Further, the TGI in the experiment with NCI-H23 lung was 5.98 µM and 2.74 µM; in the experiment on U251 CNS, 10.9 µM and 3.43 µM.
On to `CC1(C)OCC(C2OC(On3nnc4ccc(Cl)cc43)C3OC(C)(C)OC23)O1` (configuration not stated), for which the TGI in the experiment on EKVX NSCLC, in the experiment with NCI-H226 lung, in the experiment with OVCAR-8 ovarian, with SF-539 CNS, in the experiment on 786-0 renal and in the experiment on UACC-62 melanoma was more than 100 µM throughout. Also, the TGI with A549 NSCLC, with SNB-75 CNS, in the experiment on NCI-H23 lung and with U251 CNS was more than 100 µM throughout.
Consider `O=C1c2cccnc2-c2nc(-c3ccccc3)cc3c2c1nc1ccccc13`, for which the GI50 is 5.1 µM in the experiment on EKVX NSCLC; 9.39 µM in the experiment with NCI-H226 lung; 3.06 µM in the experiment with OVCAR-8 ovarian; 17.8 µM with SF-539 CNS; 5.88 µM in the experiment on 786-0 renal; 3.74 µM in the experiment with UACC-62 melanoma. The GI50 is 6.97 µM with A549 NSCLC, 10.5 µM with SNB-75 CNS, 1.73 µM in the experiment with NCI-H23 lung and 4.09 µM in the experiment on U251 CNS. Besides, the TGI is 18.1 µM in the experiment on EKVX NSCLC; 24.1 µM with NCI-H226 lung; more than 63.1 µM in the experiment on OVCAR-8 ovarian; 43.3 µM in the experiment on SF-539 CNS; 20.1 µM in the experiment on 786-0 renal; 9.01 µM in the experiment with UACC-62 melanoma. Also, the TGI in the experiment with A549 NSCLC was 21 µM; in the experiment with SNB-75 CNS it was 23.1 µM; in the experiment on NCI-H23 lung, 7.48 µM; in the experiment on U251 CNS, 19.6 µM.
As to `COc1ccc(C=O)c(N(C)C(=O)C(C)(C)C)c1`, the TGI with EKVX NSCLC, with NCI-H226 lung, with OVCAR-8 ovarian, in the experiment with SF-539 CNS, with 786-0 renal and in the experiment on UACC-62 melanoma was more than 100 µM each time. Moreover, the TGI with A549 NSCLC, with SNB-75 CNS, with NCI-H23 lung and in the experiment on U251 CNS was more than 100 µM throughout.
Consider `COC(=O)CC(CC(=O)C(=O)OC)C(=O)OC` (configuration not stated), for which the TGI in the experiment with EKVX NSCLC, in the experiment with NCI-H226 lung, in the experiment on OVCAR-8 ovarian, in the experiment with SF-539 CNS, in the experiment on 786-0 renal and with UACC-62 melanoma was more than 100 µM throughout. Besides, the TGI in the experiment with A549 NSCLC, in the experiment with SNB-75 CNS, in the experiment with NCI-H23 lung and in the experiment on U251 CNS was more than 100 µM throughout.
With `COc1ccc2c(c1)C(=O)/C(=C/c1ccc(OCC(=O)c3ccc(Cl)cc3)cc1)O2`, the GI50 in the experiment on EKVX NSCLC was 25.6 µM; in the experiment with NCI-H226 lung, 12.2 µM; in the experiment on OVCAR-8 ovarian, 42.4 µM; with SF-539 CNS, 17.9 µM; in the experiment with 786-0 renal, 21.7 µM; in the experiment with UACC-62 melanoma, 17.5 µM. Moreover, the GI50 with A549 NSCLC was 31.4 µM; in the experiment on SNB-75 CNS it was 12.2 µM; in the experiment on NCI-H23 lung it was 11.6 µM; in the experiment with U251 CNS, 15.5 µM. Also, the TGI was more than 100 µM in the experiment with EKVX NSCLC; 37.1 µM with NCI-H226 lung; more than 100 µM in the experiment with OVCAR-8 ovarian; 34.8 µM in the experiment with SF-539 CNS; 47.2 µM with 786-0 renal; more than 100 µM in the experiment on UACC-62 melanoma. Also, the TGI in the experiment on A549 NSCLC was more than 100 µM; in the experiment on SNB-75 CNS, 79.9 µM; in the experiment with NCI-H23 lung, 31.7 µM; with U251 CNS, 35.3 µM.
With `Cn1cc(-c2csc(-c3cn(C)c4ncccc34)n2)c2ccccc21`, the GI50 in the experiment on EKVX NSCLC is 0.906 µM; in the experiment on NCI-H226 lung, 0.86 µM; in the experiment with OVCAR-8 ovarian, 0.666 µM; in the experiment on SF-539 CNS, 0.158 µM; in the experiment on 786-0 renal it was 0.588 µM; in the experiment on UACC-62 melanoma it was 0.325 µM. For the same compound, the GI50 with A549 NSCLC was 0.634 µM; with SNB-75 CNS, 0.191 µM; in the experiment with NCI-H23 lung it was 0.752 µM; in the experiment with U251 CNS, 0.404 µM. For the same compound, the TGI was more than 100 µM in the experiment on EKVX NSCLC; 26.7 µM with NCI-H226 lung; 22.7 µM with OVCAR-8 ovarian; 0.579 µM in the experiment on SF-539 CNS; 18.1 µM with 786-0 renal; 44.3 µM in the experiment with UACC-62 melanoma. Besides, the TGI worked out at 23.8 µM in the experiment on A549 NSCLC, 0.737 µM with SNB-75 CNS, 20.6 µM in the experiment with NCI-H23 lung and 13.3 µM in the experiment on U251 CNS.
